Experimental findings from patent US7972611B2, “Fungus-induced inflammation and eosinophil degranulation” (Mayo Foundation for Medical Education and Research, priority 2005, dated 2011) are described below.

First the molecules themselves.
B1: SEQ ID NO:2: polypeptide of SEQ ID NO:2, Alternaria alternata endoxylanase, recombinantly produced in E. coli (protein, listed as Alternaria brassicicola)
chain: MHFRGSSIYFGIVALSSTSAVLGAVAPYGQCGGNGFQGETECAQGWSCVKSNDWYSQCINGGGNAPAPPAATGVAPAPVIPSAAPVPSMNASEPVAAPVAVAQPAATGGANGSAPDVAGTGANGAKCSLDAAFKSHGKKYIGVATDQGALSKGKNKEIIVANFGQVTPENSMKWDATEGTEGKFTLDGANALVSFATENKKLVRGHTTVWHSQLPTWVSSITDKTKLEEVMVAHIKKLMSTYAGKVYAWDVVNEIFNEDGSFRSSVFYNVLGENFVATAFATAKAADPEAKLYINDYNLDSPSYAKTKAMASNVKKWVAAGVPIDGIGSQSHLSGSWPISDYPAALKLLCESASECAMTELDIKGGAAADYKTAVTACLDVENCVGVTVWGVSDTDSWIGAAATPLLFDGSFQAKESYNGLCSALA
B2: papain: cysteine protease (protein, UniProt P00784 134-345, looked up)
Papain: IPEYVDWRQKGAVTPVKNQGSCGSCWAFSAVVTIEGIIKIRTGNLNEYSEQELLDCDRRSYGCNGGYPWSALQLVAQYGIHYRNTYPYEGVQRYCRSREKGPYAAKTDGVRQVQPYNEGALLYSIANQPVSVVLEAAGKDFQLYRGGIFVGPCGNKVDHAVAAVGYGPNYILIKNSWGTGWGENGYIRIKRGTGNSYGVCGLYTSSFYPVKN
B3: Der f1: natural mite allergen protease (protein, UniProt P16311 99-321, looked up)
Peptidase 1: TSACRINSVNVPSELDLRSLRTVTPIRMQGGCGSCWAFSGVAATESAYLAYRNTSLDLSEQELVDCASQHGCHGDTIPRGIEYIQQNGVVEERSYPYVAREQRCRRPNSQHYGISNYCQIYPPDVKQIREALTQTHTAIAVIIGIKDLRAFQHYDGRTIIQHDNGYQPNYHAVNIVGYGSTQGDDYWIVRNSWDTTWGDSGYGYFQAGNNLMMIEQYPYVVIM
B4: Calpastatin (protein, UniProt P20810 1-708, looked up)
Calpastatin: MNPTETKAIPVSQQMEGPHLPNKKKHKKQAVKTEPEKKSQSTKLSVVHEKKSQEGKPKEHTEPKSLPKQASDTGSNDAHNKKAVSRSAEQQPSEKSTEPKTKPQDMISAGGESVAGITAISGKPGDKKKEKKSLTPAVPVESKPDKPSGKSGMDAALDDLIDTLGGPEETEEENTTYTGPEVSDPMSSTYIEELGKREVTIPPKYRELLAKKEGITGPPADSSKPIGPDDAIDALSSDFTCGSPTAAGKKTEKEESTEVLKAQSAGTVRSAAPPQEKKRKVEKDTMSDQALEALSASLGTRQAEPELDLRSIKEVDEAKAKEEKLEKCGEDDETIPSEYRLKPATDKDGKPLLPEPEEKPKPRSESELIDELSEDFDRSECKEKPSKPTEKTEESKAAAPAPVSEAVCRTSMCSIQSAPPEPATLKGTVPDDAVEALADSLGKKEADPEDGKPVMDKVKEKAKEEDREKLGEKEETIPPDYRLEEVKDKDGKPLLPKESKEQLPPMSEDFLLDALSEDFSGPQNASSLKFEDAKLAAAISEVVSQTPASTTQAGAPPRDTSQSDKDLDDALDKLSDSLGQRQPDPDENKPMEDKVKEKAKAEHRDKLGERDDTIPPEYRHLLDDNGQDKPVKPPTKKSEDSKKPADDQDPIDALSGDLDSCPSTTETSQNTAKDKCKKAASSSKAPKNGGKAKDSAKTTEETSKPKDD

Starred links: 1 amine or outer side, 2 acyl side, 3 side chain; linkers in the order of their positions; H or OH if unused. Residues, ends and D or L forms follow the SMILES beside them. CO = O=C([*:1])[*:2]

One assay relates to human eosinophils. Kind of assay: Eosinophil degranulation (EDN release) and activation by fungal extracts and proteins. It counts as cell-based. Particulars: eosinophils incubated with stimulus. As for the experimental part:
FIG. 5. Effects of fungi on eosinophil degranulation. Eosinophils were incubated with culture extracts of various fungi for 3 hours.
FIG. 21. Effects of Trichoderma xylanase on eosinophil degranulation (Panel A). Effects of Trichoderma xylanase on IL-5 production in mouse airways (Panel B). Panel A: Eosinophils were incubated with various concentrations of Trichoderma xylanase for 3 hours. EDN concentrations in the supernatants were measured by RIA as an indicator of degranulation. Panel B: Naive BALB/c mice were exposed intranasally to various doses of Trichoderma xylanase. After 12 hours, BAL fluids were collected and the concentrations of IL-5 were measured by ELISA. Mean±range, n=2.
FIG. 25. Partial characterization of Alternaria extract. A, Before incubation with eosinophils, aliquots of 100 μg/mL Alternaria and 10 ng/mL IL-5 were heated at 37, 56, or 100° C. for 30 min or were treated at 4° C. for 30 min. Eosinophils were incubated in duplicate with these treated stimuli for 3 hours at 37° C. […] The molecular weight calibration of the column is shown above the elution profile.
The following was performed to determine whether human eosinophils have an innate capacity to respond to environmental fungal organisms. Human eosinophils were incubated with extracts from common environmental airborne fungi.
(§1) To monitor eosinophil function in response to extracts from Alternaria, degranulation of human eosinophils was measured by quantitating released eosinophil-derived neurotoxin (EDN) and/or MBP. In brief, freshly isolated eosinophils were suspended in HBSS with 25 mM HEPES and 0.01% gelatin at 5×10^5 cells/mL. Eosinophils and stimuli were incubated in 96-well tissue culture plates for 3 hours at 37° C. and 5% CO^2. Cell-free supernatants were stored at −20° C. A specific RIA quantitated eosinophil degranulation by measuring the concentration of EDN in the supernatants.
For the molecule B1, the “eosinophil degranulation (EDN release)” value is “stimulated eosinophil degranulation”.

The assay is the same for the next values; noted with them: through PAR-2.
As for B2, the “activation of human eosinophils by proteases” value is given as “activated”.
As for B3, the “activation of human eosinophils by proteases” value was “activated”.

The same assay, now with this note: treatment at 56° C. or lower temperatures.
On to IL-5: cytokine, for which the “loss of activity to induce EDN release after treatment” value was “not”.

The assay is the same for the next values; noted with them: treatment at 100° C.
For IL-5: cytokine, the “activity to induce EDN release after heat treatment” value was “abolished”.

The test system of the next assay is eosinophils.
Assay: not given
It counts as cell-based, human.
Details: not given
As for the experimental part: FIG. 9. […] Alternaria extract, trypsin, or PMA was pretreated with pepstatin A agarose, control agarose, or APMSF, and added to the PAR-2 peptide substrate (Panel A) or eosinophils (Panel B).
as §1
For the molecule `O=C(O)CN(CCN(CC(=O)O)CC(=O)O)CC(=O)O` [EDTA], the “eosinophil degranulation (EDN release) induced by Alternaria extract” value is reported as “inhibited”.
As to pertussis toxin, the “Alternaria-induced eosinophil [Ca2+]i response and degranulation, sensitivity to pertussis toxin” value is “sensitive”.

Staying with this assay, now noted: 3 hours at 37° C.
In the case of `CC(C)[C@H](NC(=O)[C@H](CCCNC(=N)N)NC(=O)N[C@@H](Cc1ccccc1)C(=O)O)C(=O)N[C@H](C=O)CCCNC(=N)N` [Antipain] ({Phe-CO}-Arg-Val-Arg-aldehyde), the “eosinophil degranulation (EDN release) induced by Alternaria extract” value is recorded as “did not inhibit”.
`CC(C)C[C@H](NC(=O)[C@@H](O)[C@H](N)Cc1ccccc1)C(=O)O` [Bestatin]: the “eosinophil degranulation (EDN release) induced by Alternaria extract” value was “did not inhibit”.
On to `CCCCCCCCCCCCCCCCCCNC(=O)OCC(COC(=O)N(Cc1cccc[n+]1CC)C(C)=O)OC` (stereo not shown) [CV6209], for which the “eosinophil degranulation (EDN release) induced by Alternaria extract” value is “inhibited”.
Still for that read-out and setting: the entry for `CCN(CC)CCCC(C)Nc1ccnc2cc(Cl)ccc12` (stereo not shown) [Chloroquine] is “did not inhibit”; for `CC(C)C[C@H](NC(=O)[C@@H](NC(=O)N[C@@H](Cc1ccccc1)C(=O)O)[C@@H]1CCN=C(N)N1)C(=O)N[C@H](C=O)Cc1ccccc1` [Chymostatin] it is “did not inhibit”; for `COc1cc2c(c(OC)c1OC)-c1ccc(OC)c(=O)cc1[C@@H](NC(C)=O)CC2` [Colchitin] it is “did not inhibit”.
On the same count and under the same terms, the entry for `C=C1[C@@H](C)[C@H]2[C@H](Cc3ccccc3)NC(=O)[C@]23OC(=O)/C=C/[C@H](O)CCC[C@@H](C)C/C=C/[C@H]3[C@@H]1O` [Cytochalasin B] is “did not inhibit”.
Still for that read-out and setting: the entry for `CC(C)C[C@H](NC(=O)[C@H]1O[C@@H]1C(=O)O)C(=O)NCCCCN=C(N)N` [E64] is “did not inhibit”; for `O=C(O)CN(CCOCCOCCN(CC(=O)O)CC(=O)O)CC(=O)O` [EGTA] it is “inhibited”; for `C=CC[C@@H]1/C=C(\C)C[C@H](C)C[C@H](OC)[C@H]2O[C@@](O)(C(=O)C(=O)N3CCCC[C@H]3C(=O)O[C@H](/C(C)=C/[C@@H]3CC[C@@H](O)[C@H](OC)C3)[C@H](C)[C@@H](O)CC1=O)[C@H](C)C[C@@H]2OC` [FK 506] it is “did not inhibit”.
Turning to `CN(C)CCCn1cc(C2=C(c3c[nH]c4ccccc34)C(=O)NC2=O)c2ccccc21` [GF109203X], the “eosinophil degranulation (EDN release) induced by Alternaria extract” value is recorded as “did not inhibit”.
On the same count and under the same terms, to `O=c1c(-c2ccc(O)cc2)coc2cc(O)cc(O)c12` [Genistein] belongs “did not inhibit”; to `[La]` [Lanthunum], “inhibited”.
As to `CC(=O)N[C@@H](CC(C)C)C(=O)N[C@@H](CC(C)C)C(=O)N[C@H](C=O)CCCNC(=N)N` [Leupeptin], the “eosinophil degranulation (EDN release) induced by Alternaria extract” value is “did not inhibit”.
Still for that read-out and setting: to `COc1cccc(-c2cc(=O)c3ccccc3o2)c1N` [PD98059] belongs “did not inhibit”; to `Cl.NCCc1ccc(S(=O)(=O)F)cc1` [Pefabloc SC], “did not inhibit”.
Same read-out and setting: to `CC(C)C[C@H](NP(=O)(O)O[C@@H]1O[C@@H](C)[C@H](O)[C@@H](O)[C@H]1O)C(=O)N[C@@H](Cc1c[nH]c2ccccc12)C(=O)O` [Phosphoramidon] belongs “did not inhibit”.
On the same count and under the same terms, to `Cn1cc(C2=C(c3cn(CCCSC(=N)N)c4ccccc34)C(=O)NC2=O)c2ccccc21` [Ro-31-8220] belongs “did not inhibit”; to `CC(=O)c1c(O)c(C)c(O)c(Cc2c(O)c3c(c(C(=O)/C=C/c4ccccc4)c2O)OC(C)(C)C=C3)c1O` [Rottelrin], “did not inhibit”.
Consider `C[S+]([O-])c1ccc(-c2nc(-c3ccncc3)c(-c3ccc(F)cc3)[nH]2)cc1` (stereo not shown) [SB203580], for which the “eosinophil degranulation (EDN release) induced by Alternaria extract” value is on record as “did not inhibit”.
Same read-out and setting: to `Cc1ccc(S(=O)(=O)N[C@@H](CCCCN)C(=O)CCl)cc1` [TLCK] belongs “did not inhibit”; to `NCCCCCCNS(=O)(=O)c1cccc2c(Cl)cccc12` [W-7], “did not inhibit”; to `COC[C@H]1OC(=O)c2coc3c2[C@@]1(C)C1=C(C3=O)[C@@H]2CCC(=O)[C@@]2(C)C[C@H]1OC(C)=O` [Wortmannin], “did not inhibit”.
On the same count and under the same terms, the entry for Aprotinin is “did not inhibit”; for Jasplakinlide it is “inhibited”; for heparin it is “inhibited”.
Take B4: the “eosinophil degranulation (EDN release) induced by Alternaria extract” value is given as “did not inhibit”.
